We go through 11 molecules from ChEMBL document CHEMBL5058564, “EUbOPEN Chemogenomics Library 2 (Incucyte)” (2022).

What all share (assay type): toxicity, cell-based
The test system of data set [1] is Fibroblast. Briefly: Incucyte cell viability with human fibroblast. Conditions: 10 µM, compound concentration 10 uM.
Data set [2] concerns HEK-293T. Description: Incucyte cell viability with HEK293T. Conditions: human, 10 µM, compound concentration 10 uM.
Data set [3] relates to U2OS. Briefly: Incucyte cell viability with U2OS. As to conditions: human, 10 µM, compound concentration 10 uM.
The mark [4] stands for this setting: 0 h, replicate number 1, timepoint 0 hours.
[5] abbreviates: 0 h, replicate number 2, timepoint 0 hours.
The mark [6] stands for this setting: 6 h, replicate number 1, timepoint 6 hours.
[7] abbreviates: 12 h, replicate number 1, timepoint 12 hours.
Where [8] appears, read: 18 h, replicate number 1, timepoint 18 hours.
The mark [9] stands for this setting: 24 h, replicate number 1, timepoint 24 hours.
Setting [10] is: 12 h, replicate number 2, timepoint 12 hours.
[11] abbreviates: 18 h, replicate number 2, timepoint 18 hours.
Setting [12] is: 6 h, replicate number 2, timepoint 6 hours.
The mark [13] stands for this setting: 24 h, replicate number 2, timepoint 24 hours.
Further: unitless GR value; below 1 slowed growth and below 0 cell loss.

On to `Cc1nccc(COC(=O)N2C[C@@H]3[C@@H](CNC(=O)c4ccc5[nH]nnc5c4)[C@@H]3C2)n1` [BI 3017], for which the “Growth Rate” value is given as 0.35 in data set [1] (setting [4]); 0.77 in data set [1] (setting [5]); 0.04 in data set [1] (setting [6]); 0.1 in data set [1] (setting [7]); 0.53 in data set [1] (setting [8]); 0.68 in data set [1] (setting [9]). Moreover, the “Growth Rate” value in data set [2] (setting [4]) was determined as 0.67; in data set [2] (setting [5]), 0.34; in data set [2] (setting [10]), 0.9; in data set [3] (setting [4]), 0.07; in data set [3] (setting [5]), 0.45; in data set [3] (setting [6]), 0.79. Besides, the “Growth Rate” value in data set [3] (setting [7]) turned out to be 0.75; in data set [3] (setting [10]), 0.9; in data set [3] (setting [8]), 0.68; in data set [3] (setting [11]), 0.98; in data set [3] (setting [9]), 0.71.

As for `c1cc(OCCCN2CCCCC2)ccc1CN1CCCCC1` [JNJ-5207852], the “Growth Rate” value is 0.03 in data set [1] (setting [4]); 0.31 in data set [1] (setting [6]); 0.6 in data set [1] (setting [10]); 0.68 in data set [1] (setting [9]); 0.82 in data set [2] (setting [12]); -0.13 in data set [3] (setting [4]). Moreover, the “Growth Rate” value in data set [3] (setting [12]) came out at 0.76; in data set [3] (setting [10]), 0.92; in data set [3] (setting [11]), 0.94.

In the case of `Br.CS(=O)(=O)Nc1c(O)ccc2c1CCCC2C1=NCCN1` (centres undefined), the “Growth Rate” value is on record as 0.32 in data set [1] (setting [4]); 0.39 in data set [1] (setting [5]); 0.94 in data set [1] (setting [9]); 0.33 in data set [2] (setting [12]); 0.92 in data set [2] (setting [7]); -1 in data set [3] (setting [5]). Moreover, the “Growth Rate” value is on record as -0.8 in data set [3] (setting [6]), 0.72 in data set [3] (setting [7]), 0.68 in data set [3] (setting [8]) and 0.86 in data set [3] (setting [9]).

Take `CCCn1c(=O)c2[nH]c(C3CCCC3)nc2n(CCC)c1=O` [1,3-DIPROPYL-8-CYCLOPENTYLXANTHINE [DPCPX]]: the “Growth Rate” value is given as 0.19 in data set [1] (setting [4]); 0.38 in data set [1] (setting [5]); -0.31 in data set [1] (setting [6]); 0.03 in data set [1] (setting [7]); -0.16 in data set [1] (setting [8]); -0.1 in data set [1] (setting [9]). The “Growth Rate” value in data set [2] (setting [4]) worked out at 0.58; in data set [2] (setting [6]), 0.57; in data set [2] (setting [12]), 0.79; in data set [2] (setting [7]), 0.84; in data set [2] (setting [8]), 0.81; in data set [2] (setting [9]), 0.72. Besides, the “Growth Rate” value in data set [3] (setting [4]) was -0.53; in data set [3] (setting [5]), -1; in data set [3] (setting [11]) it was 0.95.

As for `CN1CCc2cc(Cl)c(O)cc2[C@@H](c2ccccc2)C1.Cl`, the “Growth Rate” value in data set [1] (setting [6]) is listed as -0.06; in data set [1] (setting [7]), 1; in data set [1] (setting [9]) it was 0.88; in data set [2] (setting [5]), 0.66; in data set [2] (setting [12]), 0.46; in data set [2] (setting [10]) it was 0.71. For the same molecule, the “Growth Rate” value is recorded as -1 in data set [3] (setting [5]), 0.49 in data set [3] (setting [12]), 0.86 in data set [3] (setting [11]) and 0.95 in data set [3] (setting [13]).

As for `O=C(c1cc(C2CC2)on1)N(C1CCCCC1)C1CCCCC1`, the “Growth Rate” value in data set [1] (setting [4]) is 0.81; in data set [1] (setting [6]) it was -0.36; in data set [1] (setting [7]) it was 0.15; in data set [1] (setting [10]) it was 0.97; in data set [1] (setting [8]), 0.82; in data set [1] (setting [11]) it was 0.86. In addition, the “Growth Rate” value in data set [1] (setting [9]) is reported as 0.78; in data set [1] (setting [13]), 0.8; in data set [2] (setting [5]), 0.08; in data set [2] (setting [6]), 0.27; in data set [2] (setting [7]) it was 0.55; in data set [2] (setting [10]), 0.56. For the same molecule, the “Growth Rate” value is 0.64 in data set [2] (setting [8]); 0.68 in data set [2] (setting [11]); 0.74 in data set [2] (setting [9]); 0.67 in data set [2] (setting [13]); 0.64 in data set [3] (setting [4]); 0.89 in data set [3] (setting [6]). In addition, the “Growth Rate” value in data set [3] (setting [12]) is on record as 0.71; in data set [3] (setting [7]), 0.7; in data set [3] (setting [13]), 1.

As for `COc1cc(OC2CCN(C(C)=O)CC2)ccc1C(=O)N1CCC(N2C(=O)OCc3ccccc32)CC1`, the “Growth Rate” value in data set [1] (setting [6]) is listed as -0.07; in data set [1] (setting [12]), -0.41; in data set [1] (setting [7]), 0.28; in data set [1] (setting [10]), 0.65; in data set [1] (setting [8]), 0.37; in data set [1] (setting [9]), 0.24. Further, the “Growth Rate” value is reported as 0.92 in data set [2] (setting [4]); 0.75 in data set [3] (setting [4]); 0.85 in data set [3] (setting [6]); 0.79 in data set [3] (setting [12]); 0.77 in data set [3] (setting [10]); 0.91 in data set [3] (setting [8]). Further, the “Growth Rate” value in data set [3] (setting [11]) was 0.78; in data set [3] (setting [9]), 0.91; in data set [3] (setting [13]), 0.88.

Take `CC(C)Oc1ccc(-c2nc(-c3cccc4c3CC[C@@H]4NCCO)no2)cc1C#N` [OZANIMOD]: the “Growth Rate” value in data set [1] (setting [6]) is 0.57; in data set [1] (setting [12]) it was 0.42; in data set [1] (setting [7]), 0.12; in data set [1] (setting [10]), -0.28; in data set [1] (setting [8]), 0.03; in data set [1] (setting [11]) it was -0.49. For the same molecule, the “Growth Rate” value in data set [1] (setting [9]) is -0.09; in data set [1] (setting [13]) it was -0.43; in data set [2] (setting [6]), -0.7; in data set [2] (setting [12]), -0.68; in data set [2] (setting [7]), -0.42; in data set [2] (setting [10]), -0.34. Moreover, the “Growth Rate” value is recorded as -0.32 in data set [2] (setting [8]); -0.35 in data set [2] (setting [11]); -0.25 in data set [2] (setting [9]); -0.29 in data set [2] (setting [13]); -0.16 in data set [3] (setting [12]); 0.37 in data set [3] (setting [7]). Besides, the “Growth Rate” value in data set [3] (setting [10]) is recorded as -0.05; in data set [3] (setting [8]), 0.41; in data set [3] (setting [11]), 0.01; in data set [3] (setting [9]), 0.38; in data set [3] (setting [13]), 0.04.

`C[C@@H](c1ccc(F)cc1)n1nnc2cnc3ccc(-c4ccc5ocnc5c4)cc3c21`: the “Growth Rate” value was 0.92 in data set [1] (setting [4]); -0.12 in data set [2] (setting [6]); -0.31 in data set [2] (setting [12]); -0.11 in data set [2] (setting [7]); -0.14 in data set [2] (setting [10]); 0.09 in data set [2] (setting [8]). The “Growth Rate” value in data set [2] (setting [11]) is 0.07; in data set [2] (setting [9]), 0.23; in data set [2] (setting [13]), 0.21; in data set [3] (setting [4]) it was -0.51; in data set [3] (setting [5]) it was 0.33; in data set [3] (setting [10]), 0.94. Moreover, the “Growth Rate” value turned out to be 0.75 in data set [3] (setting [8]), 0.83 in data set [3] (setting [11]), 0.51 in data set [3] (setting [9]) and 0.82 in data set [3] (setting [13]).

Consider `CSCC[C@H](NC(=O)[C@H](CC(C)C)NC(=O)CNC(=O)[C@H](Cc1ccccc1)N(C)C(=O)[C@H](Cc1ccccc1)NC(=O)[C@H](CC(=O)O)NC(=O)CCC(=O)O)C(N)=O` [SENKTIDE], for which the “Growth Rate” value in data set [1] (setting [4]) was 0.34; in data set [1] (setting [5]) it was 0.41; in data set [1] (setting [12]), 0.25; in data set [1] (setting [7]) it was 0.98; in data set [1] (setting [10]), 0.87; in data set [1] (setting [9]) it was 0.9. The “Growth Rate” value in data set [2] (setting [4]) is given as 0.75; in data set [2] (setting [5]) it was -0.03; in data set [2] (setting [6]), 0.83; in data set [2] (setting [10]) it was 0.93; in data set [2] (setting [8]), 0.92; in data set [2] (setting [9]) it was 0.84. Also, the “Growth Rate” value was 0.88 in data set [2] (setting [13]), 0.94 in data set [3] (setting [7]), 0.98 in data set [3] (setting [10]) and 0.91 in data set [3] (setting [11]).

On to `Nc1cnc(N2CCc3cc(S(=O)(=O)Nc4c(F)cc(Cl)cc4F)cc(N4CCCC4=O)c32)nc1` [TP-020n], for which the “Growth Rate” value is 0.01 in data set [1] (setting [4]); -0.22 in data set [1] (setting [5]); 0.92 in data set [1] (setting [9]); 0.54 in data set [2] (setting [4]); 0.76 in data set [2] (setting [5]); 0.61 in data set [2] (setting [6]). The “Growth Rate” value was found to be 0.37 in data set [2] (setting [7]); 0.71 in data set [2] (setting [10]); 0.61 in data set [2] (setting [8]); 0.9 in data set [2] (setting [11]); 0.74 in data set [2] (setting [9]); 0.77 in data set [2] (setting [13]). Besides, the “Growth Rate” value in data set [3] (setting [4]) is -0.04; in data set [3] (setting [6]) it was 0.53; in data set [3] (setting [7]) it was 0.72; in data set [3] (setting [8]) it was 0.65; in data set [3] (setting [9]), 0.66.
